Experimental data: publication PMC7932537, “Quantitative profiling of protease specificity” (PLoS Computational Biology, 2021)

Tests used:
[1] = system: MMP-2; assay: Substrate phage display with NGS: relative probability (RP) of P3-P1' tetramer clusters; format: biochemical, human; settings: MMP2;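 note: ratio of tetramer probability after protease selection to that in naive phage library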
[2] = molecular target: MMP-9 (Homo sapiens, UniProt P14780); assay: K(obs) of individual phage substrates (set of 1369); format: biochemical; settings: MMP9
Chain of MMP-9 (P14780 94-707): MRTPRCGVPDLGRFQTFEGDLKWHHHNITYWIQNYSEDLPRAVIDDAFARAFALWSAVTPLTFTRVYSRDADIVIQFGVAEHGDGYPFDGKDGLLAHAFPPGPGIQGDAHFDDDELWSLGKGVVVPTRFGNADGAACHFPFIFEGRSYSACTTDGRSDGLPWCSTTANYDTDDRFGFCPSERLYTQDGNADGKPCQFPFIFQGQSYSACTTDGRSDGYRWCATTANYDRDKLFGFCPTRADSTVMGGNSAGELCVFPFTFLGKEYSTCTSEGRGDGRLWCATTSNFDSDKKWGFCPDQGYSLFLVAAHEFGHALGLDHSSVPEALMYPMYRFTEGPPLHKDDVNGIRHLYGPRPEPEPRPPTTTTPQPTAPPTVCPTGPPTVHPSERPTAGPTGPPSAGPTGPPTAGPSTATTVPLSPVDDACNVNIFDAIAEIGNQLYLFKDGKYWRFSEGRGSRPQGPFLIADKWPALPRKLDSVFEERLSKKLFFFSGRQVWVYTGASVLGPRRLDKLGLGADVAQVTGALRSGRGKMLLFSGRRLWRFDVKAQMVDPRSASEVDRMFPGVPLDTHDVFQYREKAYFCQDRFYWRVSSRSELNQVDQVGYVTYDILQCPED

[3] = molecular target: T1, MMP-2 (Homo sapiens, UniProt P08253); assay: as above; format: biochemical; settings: MMP2
T1 sequence (P08253 110-660): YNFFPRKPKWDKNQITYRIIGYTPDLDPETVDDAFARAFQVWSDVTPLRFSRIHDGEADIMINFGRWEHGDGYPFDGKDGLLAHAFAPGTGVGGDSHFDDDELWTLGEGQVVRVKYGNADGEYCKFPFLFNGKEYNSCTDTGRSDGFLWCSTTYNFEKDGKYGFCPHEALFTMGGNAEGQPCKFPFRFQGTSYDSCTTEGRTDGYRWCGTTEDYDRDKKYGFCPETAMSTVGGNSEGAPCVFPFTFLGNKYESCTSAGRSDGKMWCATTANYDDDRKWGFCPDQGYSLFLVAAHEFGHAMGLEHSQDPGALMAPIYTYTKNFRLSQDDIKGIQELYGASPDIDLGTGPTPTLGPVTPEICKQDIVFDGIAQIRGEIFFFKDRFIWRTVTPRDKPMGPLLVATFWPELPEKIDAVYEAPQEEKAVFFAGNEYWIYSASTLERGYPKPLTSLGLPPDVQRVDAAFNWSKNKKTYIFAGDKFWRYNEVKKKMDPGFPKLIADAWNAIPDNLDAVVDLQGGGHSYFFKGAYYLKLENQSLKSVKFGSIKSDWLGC

[4] = RP of the P3-P1' tetramer contained in the substrate (substrate phage display with NGS)
[5] = individual phage substrates, set of 1369 peptides, hyphen in sequence marks cleavage position
[6] = individual phage substrates, set of 1369 peptides, cleavage position marked by hyphen in sequence
[7] = RP of the P3-P1' tetramer contained in the substrate
[8] = individual phage substrate of the set of 1369 peptides, dash in the sequence marks the cleavage position
[9] = individual phage substrate of the set of 1369 peptides, cleavage position marked by '-'

| Kobs [2, 5] | Kobs [3, 6] | Kobs [2, 8] | Kobs [3, 9] | Substance | relative probability (RP) [1, 4] | relative probability (RP) [1, 7] |
| --- | --- | --- | --- | --- | --- | --- |
| – | – | 261.974 M⁻¹ s⁻¹ | 690.17 M⁻¹ s⁻¹ | GAAHG-IFTAS | – | 8.881 |
| – | – | 6396.07 M⁻¹ s⁻¹ | 6396.07 M⁻¹ s⁻¹ | DPWRA-LTASG | – | 22.4074 |
| – | – | 7815.03 M⁻¹ s⁻¹ | 5269.78 M⁻¹ s⁻¹ | TVPQM-ITASG | – | 16.6558 |
| 3964.21 M⁻¹ s⁻¹ | 2545.25 M⁻¹ s⁻¹ | – | – | GLPLN-WRTAS | 28.8158 | – |
| 517.582 M⁻¹ s⁻¹ | 1711.63 M⁻¹ s⁻¹ | – | – | GLLLN-MTASG | 13.7728 | – |
| – | – | 2097.28 M⁻¹ s⁻¹ | 690.17 M⁻¹ s⁻¹ | GMVFS-IYTAS | – | 0.2237 |
| – | – | 12792.1 M⁻¹ s⁻¹ | 12792.1 M⁻¹ s⁻¹ | GRPAD-LRTAS | – | 30.0217 |
| 8941.32 M⁻¹ s⁻¹ | 4205.91 M⁻¹ s⁻¹ | – | – | AHVFA-LTASG | 11.8827 | – |
| 12792.1 M⁻¹ s⁻¹ | 10866.7 M⁻¹ s⁻¹ | – | – | PGPES-LTASG | 26.0767 | – |
| – | – | 12792.1 M⁻¹ s⁻¹ | 12792.1 M⁻¹ s⁻¹ | GGPRS-LFTAS | – | 33.3704 |
| – | – | 619.843 M⁻¹ s⁻¹ | 3741.87 M⁻¹ s⁻¹ | RLANA-LTASG | – | 20.3526 |
| 3344.37 M⁻¹ s⁻¹ | 12792.1 M⁻¹ s⁻¹ | – | – | VLWAG-LTASG | 28.1709 | – |
| 231.616 M⁻¹ s⁻¹ | 551.253 M⁻¹ s⁻¹ | – | – | SGGSG-LRVKR | 1.9698 | – |
| – | – | 585.336 M⁻¹ s⁻¹ | 9740.44 M⁻¹ s⁻¹ | PTFAH-LTASG | – | 19.6504 |
| 0 M⁻¹ s⁻¹ | 0 M⁻¹ s⁻¹ | – | – | RLYMN-ITASG | 0 | – |
| – | – | 12792.1 M⁻¹ s⁻¹ | 12792.1 M⁻¹ s⁻¹ | MSPRW-LTASG | – | 34.1809 |
| 142.481 M⁻¹ s⁻¹ | 142.481 M⁻¹ s⁻¹ | – | – | GSGYS-LIALT | 0.04707 | – |
| 3438.54 M⁻¹ s⁻¹ | 1561.44 M⁻¹ s⁻¹ | – | – | KMVYM-LTASG | 5.094 | – |
| – | – | 0 M⁻¹ s⁻¹ | 12792.1 M⁻¹ s⁻¹ | GSLAH-LTASG | – | 32.813 |
| – | – | 6688.74 M⁻¹ s⁻¹ | 4082.43 M⁻¹ s⁻¹ | SGPRM-LVLTA | – | 30.5973 |
| – | – | 1112.44 M⁻¹ s⁻¹ | 12792.1 M⁻¹ s⁻¹ | TVVAY-ITASG | – | 18.7179 |
| 951.362 M⁻¹ s⁻¹ | 1816.46 M⁻¹ s⁻¹ | – | – | GRGAN-LKTAS | 13.1428 | – |
| 3637.04 M⁻¹ s⁻¹ | 3079.62 M⁻¹ s⁻¹ | – | – | TKWLA-LTASG | 1.218 | – |
| 3253.29 M⁻¹ s⁻¹ | 12792.1 M⁻¹ s⁻¹ | – | – | NRPAS-WTASG | 32.4643 | – |
| 12792.1 M⁻¹ s⁻¹ | 874.197 M⁻¹ s⁻¹ | – | – | SGYYG-LRATA | 0.142 | – |
| – | – | 836.403 M⁻¹ s⁻¹ | 12792.1 M⁻¹ s⁻¹ | HQWAA-LTASG | – | 24.4484 |
| 6688.74 M⁻¹ s⁻¹ | 12792.1 M⁻¹ s⁻¹ | – | – | APVLA-LTASG | 13.5229 | – |
| 0 M⁻¹ s⁻¹ | 142.481 M⁻¹ s⁻¹ | – | – | SLFLH-MTASG | 0.2069 | – |
| – | – | 619.843 M⁻¹ s⁻¹ | 355.093 M⁻¹ s⁻¹ | PKWHG-LTASG | – | 0.5588 |
| – | – | 654.784 M⁻¹ s⁻¹ | 3253.29 M⁻¹ s⁻¹ | AYGSH-LTASG | – | 4.2785 |

Second part, the substance before the results:

| Substance | Kobs [2, 5] | Kobs [3, 6] | Kobs [2, 8] | Kobs [3, 9] | relative probability (RP) [1, 4] | relative probability (RP) [1, 7] |
| --- | --- | --- | --- | --- | --- | --- |
| YSATN-LTASG | 484.315 M⁻¹ s⁻¹ | 12792.1 M⁻¹ s⁻¹ | – | – | 16.0897 | – |
| DAVYG-LTASG | – | – | 2615.58 M⁻¹ s⁻¹ | 1925.41 M⁻¹ s⁻¹ | – | 17.3788 |
| GVYQG-LRTAS | – | – | 799.117 M⁻¹ s⁻¹ | 1373.05 M⁻¹ s⁻¹ | – | 4.332 |
| WQYSN-LTASG | 323.705 M⁻¹ s⁻¹ | 3964.21 M⁻¹ s⁻¹ | – | – | 25.2832 | – |
| FSARS-LTASG | 4613.14 M⁻¹ s⁻¹ | 8941.32 M⁻¹ s⁻¹ | – | – | 17.186 | – |
| WDALG-ITASG | – | – | 2097.28 M⁻¹ s⁻¹ | 3850.82 M⁻¹ s⁻¹ | – | 18.2164 |
| RDLSH-LTASG | 261.974 M⁻¹ s⁻¹ | 9740.44 M⁻¹ s⁻¹ | – | – | 29.8814 | – |
| RGPYM-LTASG | 12792.1 M⁻¹ s⁻¹ | 6688.74 M⁻¹ s⁻¹ | – | – | 24.9477 | – |
| SGAHG-LLLTA | – | – | 1071.29 M⁻¹ s⁻¹ | 517.582 M⁻¹ s⁻¹ | – | 23.6336 |
| SIAFA-LTASG | 12792.1 M⁻¹ s⁻¹ | 12792.1 M⁻¹ s⁻¹ | – | – | 17.8812 | – |
| RKVRN-WTASG | 201.585 M⁻¹ s⁻¹ | 0 M⁻¹ s⁻¹ | – | – | 17.7682 | – |
| SGISF-MSVTA | 0 M⁻¹ s⁻¹ | 836.403 M⁻¹ s⁻¹ | – | – | 23.3965 | – |
| EVARA-MTASG | – | – | 5090.5 M⁻¹ s⁻¹ | 7015.91 M⁻¹ s⁻¹ | – | 25.2992 |
| GTLAA-MSTAS | 0 M⁻¹ s⁻¹ | 4205.91 M⁻¹ s⁻¹ | – | – | 30.6825 | – |
| GIVGM-LQTAS | – | – | 323.705 M⁻¹ s⁻¹ | 4613.14 M⁻¹ s⁻¹ | – | 28.5913 |
| NHVWP-LTASG | – | – | 726.013 M⁻¹ s⁻¹ | 1154.21 M⁻¹ s⁻¹ | – | 5.294 |
| GEFRS-MRTAS | 0 M⁻¹ s⁻¹ | 1763.55 M⁻¹ s⁻¹ | – | – | 5.389 | – |
| QKVLN-MTASG | 5269.78 M⁻¹ s⁻¹ | 2476.66 M⁻¹ s⁻¹ | – | – | 19.025 | – |
| GIPYH-LATAS | – | – | 7015.91 M⁻¹ s⁻¹ | 1816.46 M⁻¹ s⁻¹ | – | 27.2418 |
| SGSHG-LRSTA | – | – | 1154.21 M⁻¹ s⁻¹ | 1763.55 M⁻¹ s⁻¹ | – | 0.2009 |

| Substance | Kobs [2, 5] | Kobs [3, 6] | Kobs [2, 8] | Kobs [3, 9] | relative probability (RP) [1, 4] | relative probability (RP) [1, 7] |
| --- | --- | --- | --- | --- | --- | --- |
| MVPKW-LTASG | – | – | 10866.7 M⁻¹ s⁻¹ | 7815.03 M⁻¹ s⁻¹ | – | 29.287 |
| GDPYS-LRTAS | – | – | 12792.1 M⁻¹ s⁻¹ | 4922.1 M⁻¹ s⁻¹ | – | 30.7259 |
| ARVRH-LTASG | – | – | 4335.13 M⁻¹ s⁻¹ | 7815.03 M⁻¹ s⁻¹ | – | 25.4239 |
| TTLRW-WTASG | 690.17 M⁻¹ s⁻¹ | 1816.46 M⁻¹ s⁻¹ | – | – | 6.313 | – |
| SGGSG-LRIGL | – | – | 201.585 M⁻¹ s⁻¹ | 12792.1 M⁻¹ s⁻¹ | – | 1.9698 |
| GKMFH-LITAS | 142.481 M⁻¹ s⁻¹ | 292.668 M⁻¹ s⁻¹ | – | – | 0.052 | – |
| MKWAA-YTASG | – | – | 585.336 M⁻¹ s⁻¹ | 12792.1 M⁻¹ s⁻¹ | – | 15.6012 |
| GNAIH-LQTAS | – | – | 0 M⁻¹ s⁻¹ | 1196.62 M⁻¹ s⁻¹ | – | 13.4941 |
| RLPVH-YTASG | – | – | 12792.1 M⁻¹ s⁻¹ | 7815.03 M⁻¹ s⁻¹ | – | 23.3589 |
| PIALH-WTASG | 12792.1 M⁻¹ s⁻¹ | 12792.1 M⁻¹ s⁻¹ | – | – | 5.12 | – |
| SGPTN-LRTTA | – | – | 12792.1 M⁻¹ s⁻¹ | 12792.1 M⁻¹ s⁻¹ | – | 31.0288 |
| LSVFW-LTASG | – | – | 12792.1 M⁻¹ s⁻¹ | 12792.1 M⁻¹ s⁻¹ | – | 13.7679 |
| SFPNP-LTASG | – | – | 2545.25 M⁻¹ s⁻¹ | 5667.28 M⁻¹ s⁻¹ | – | 23.6266 |
| SGLGT-LSKTA | 0 M⁻¹ s⁻¹ | 836.403 M⁻¹ s⁻¹ | – | – | 24.6198 | – |
| TSPVA-LTASG | – | – | 12792.1 M⁻¹ s⁻¹ | 12792.1 M⁻¹ s⁻¹ | – | 34.2983 |
| SGPSW-LYTTA | 10866.7 M⁻¹ s⁻¹ | 9740.44 M⁻¹ s⁻¹ | – | – | 35.705 | – |
| RIPAS-LTASG | – | – | 12792.1 M⁻¹ s⁻¹ | 12792.1 M⁻¹ s⁻¹ | – | 36.4285 |
| SGPQS-WRTTA | 3165.09 M⁻¹ s⁻¹ | 7815.03 M⁻¹ s⁻¹ | – | – | 25.7009 | – |
| GLPMH-LTASG | – | – | 10866.7 M⁻¹ s⁻¹ | 7386.83 M⁻¹ s⁻¹ | – | 30.095 |
